Data from ChEMBL document CHEMBL3286303, “Synthesis and in vitro antiproliferative evaluation of novel N-alkylated 6-isobutyl- and propyl pyrimidine derivatives” (Bioorg Med Chem Lett, 2014).
Activity calls are given as the source filed them. The rule behind the calls is not given here.

How the values were obtained:
K562 [1] = assay: Cell cycle arrest in human K562 cells as assessed as accumulation at G2/M phase at 1 uM after 48 hrs by propidium iodide staining-based flow cytometric analysis relative to control; assay type: functional
WI-38 = assay: Cell cycle arrest in human WI38 cells as assessed as accumulation at G2/M phase at 1 uM after 48 hrs by propidium iodide staining-based flow cytometric analysis relative to control; details: wi-38, 48 h
SW-620 [2] = assay: Antiadhesive activity against human SW620 cells at 5 uM after 2 to 24 hrs by crystal-violet staining-based microscopic analysis; assay type: functional, cell-based
K562 [3] = assay: Cell cycle arrest in human K562 cells as assessed as accumulation at S phase at 1 uM after 48 hrs by propidium iodide staining-based flow cytometric analysis relative to control; assay type: functional
HeLa = assay: Antiproliferative activity against human HeLa cells after 72 hrs by MTT assay; assay type: functional, cell-based
MCF7 [4] = assay: Cell cycle arrest in human MCF7 cells as assessed as accumulation at S phase at 1 uM after 48 hrs by propidium iodide staining-based flow cytometric analysis relative to control; assay type: functional
SW-620 [5] = assay: Cell cycle arrest in human SW620 cells as assessed as accumulation at G1 phase at 1 uM after 48 hrs by propidium iodide staining-based flow cytometric analysis relative to control; assay type: functional
SW-620 [6] = assay: Cell cycle arrest in human SW620 cells as assessed as accumulation at G1 phase at 1 uM after 24 hrs by propidium iodide staining-based flow cytometric analysis relative to control; assay type: functional
MCF7 [7] = assay: Cell cycle arrest in human MCF7 cells as assessed as accumulation at G2/M phase at 1 uM after 24 hrs by propidium iodide staining-based flow cytometric analysis relative to control; assay type: functional
K562 [8] = assay: Cell cycle arrest in human K562 cells as assessed as accumulation at S phase at 0.1 uM after 48 hrs by propidium iodide staining-based flow cytometric analysis relative to control; assay type: functional
MCF7 [9] = assay: Cell cycle arrest in human MCF7 cells as assessed as accumulation at S phase at 1 uM after 24 hrs by propidium iodide staining-based flow cytometric analysis relative to control; assay type: functional

**Q.** Which results are given for `COCn1c(CC(COCc2ccccc2)COCc2ccccc2)c(C)c(=O)n(COC)c1=O`?
**A.** Activity (K562 [1]): 17.4%; Activity (WI-38): 3.5%; Activity (SW-620 [2]): Active; Activity (K562 [3]): 25.9%; Activity (HeLa): Dose-dependent effect; IC50 (HeLa): 0.3 µM; Activity (MCF7 [4]): 4.9%; Activity (SW-620 [5]): 53.1%; Activity (SW-620 [6]): 55.9%; Activity (MCF7 [7]): 8.7%; Activity (K562 [8]): 24.1%; Activity (MCF7 [9]): 8.1%
